{"source": "ChEMBL document CHEMBL3832064", "about": "“DailyMed|setid=5eda246b-ac51-46e7-b473-35937f84ed05 | GLIMEPIRIDE - glimepiride tablet|Perrigo New York Inc”", "assay_type_in_all_cases": "ADME, organism-based", "key": {"[1]": {"assay": "(§1) Evalaution of pharmacokinetic parameters for Glimepiride following single oral […] of Glimepiride tablets […] to healthy subjects and to patients with type 2 diabetes.", "set-up": "dose 4 mg, dose 1 mg, dose 2 mg, dose 8 mg, route oral", "settings": "human, in vivo, dosed compound id 27, dosed compound name GLIMEPIRIDE, regimen Single dose, tissue Plasma"}, "[2]": {"system": "Homo sapiens", "assay": "as §1", "set-up": "dose 4 mg, dose 1 mg, dose 2 mg, dose 8 mg, route oral", "settings": "in vivo, po, dosed compound id 27, dosed compound name GLIMEPIRIDE, regimen Single dose, tissue Plasma"}, "[3]": {"assay": "(§2) Evalaution of pharmacokinetic parameters for Glimepiride following multiple doses of Glimepiride […] to healthy subjects and to patients with type 2 diabetes", "set-up": "dose 4 mg, dose 8 mg, route oral", "settings": "human, in vivo, dosed compound id 27, dosed compound name GLIMEPIRIDE, regimen Multiple dose, study dosing duration 10 days, tissue Plasma"}, "[4]": {"organism": "Homo sapiens", "assay": "as §2", "set-up": "dose 4 mg, dose 8 mg, route oral", "settings": "in vivo, po, dosed compound id 27, dosed compound name GLIMEPIRIDE, regimen Multiple dose, study dosing duration 10 days, tissue Plasma"}, "[5]": {"assay": "Pharmacokinetic parameters evaluated following intravenous […] of Glimepiride […] to normal subjects.", "settings": "human, in vivo, dosed compound id 27, dosed compound name GLIMEPIRIDE, tissue Plasma"}, "[6]": {"settings": "dose 1-8 mg, study dosing duration 1 day"}}, "note": "Where “and” joins values, the source holds several entries; their conditions need not be identical. Equal values may be shown once.", "data": [{"smiles": "CCC1=C(C)CN(C(=O)NCCc2ccc(S(=O)(=O)NC(=O)N[C@H]3CC[C@H](C)CC3)cc2)C1=O", "note": "[GLIMEPIRIDE]", "values": [{"measurement": "AUC", "setting": "[1]; po, gender male and female, read-out: AUC(0-last)", "result": 339, "unit": "ng·h/mL"}, {"measurement": "half-life", "setting": "[1]; dose 1 mg, gender male and female, route oral", "result": 3.1, "unit": "h"}, {"measurement": "CL/F", "setting": "[1]; dose 1-8 mg, route oral", "result": 52.1, "unit": "mL/min"}, {"measurement": "Tmax", "setting": "[1]; dose 1-8 mg, route oral", "result": 2.4, "unit": "h"}, {"measurement": "Vd/F", "setting": "[1]; dose 1-8 mg, route oral", "result": 21.8, "unit": "L"}, {"measurement": "t1/2", "setting": "[2]; dose 1 mg, gender male and female", "result": 5.3, "unit": "h"}, {"measurement": "CL/F", "setting": "[2]; [6]", "result": 48.5, "unit": "mL/min"}, {"measurement": "Tmax", "setting": "[2]; [6]", "result": 2.5, "unit": "h"}, {"measurement": "Vd/F", "setting": "[2]; [6]", "result": 19.8, "unit": "L"}, {"measurement": "t1/2", "setting": "[2]; [6]", "result": 5, "unit": "h"}, {"measurement": "AUC(0-last)", "setting": "[2]; gender male and female", "result": 315.2, "unit": "ng·h/mL"}, {"measurement": "Cmax", "setting": "[2]; gender male and female", "result": "102.4 ng/mL and 103.2 ng/mL"}, {"measurement": "Cmax", "setting": "[2]; study dosing duration 1 day", "result": "352 ng/mL and 591 ng/mL"}, {"measurement": "Cmax", "setting": "[3]; po", "result": 578, "unit": "ng/mL"}, {"measurement": "CL/F", "setting": "[3]; dose 1-8 mg, route oral", "result": 52.7, "unit": "mL/min"}, {"measurement": "Tmax", "setting": "[3]; dose 1-8 mg, route oral", "result": 2.8, "unit": "h"}, {"measurement": "Vd/F", "setting": "[3]; dose 1-8 mg, route oral", "result": 37.1, "unit": "L"}, {"measurement": "half-life", "setting": "[3]; dose 1-8 mg, route oral", "result": 9.2, "unit": "h"}, {"measurement": "Cmax", "setting": "[4]", "result": 309, "unit": "ng/mL"}, {"measurement": "Vd", "setting": "[5]", "result": 8.8, "unit": "L"}, {"measurement": "clearance", "setting": "[5]", "result": 47.8, "unit": "mL/min"}]}]}
